This note sets out measurements from patent US11672799B2, “1,4-disubstituted pyridazine quinolne analogs there of and methods for treating SMN-deficiency-related conditions” (Novartis AG, priority 2013, dated 2023).

As a reminder, the EC50 is the concentration at which the effect is half-maximal.

This test deals with SMN protein. Nature of the test: cellular SMN ELISA (SMN protein elevation) in myoblast cell line from SMNdelta7 mouse model. It is filed as cell-based. On the procedure: A cellular SMN ELISA was used to measure the effects of low molecular weight compounds on SMN protein elevation. Cells from a myoblast cell line derived from the SMNdelta7 mouse model (kind gift from Steve Burden, NYU) were seeded into a 384-well plate at a density of 3000 cells/well and treated with compounds for 24 hours. ELISA capture plates were prepared by coating 384-well plates (Immulon 4HBX) with 0.5 ug/mL of anti-SMN mAb (BD Science, Catalog number 610647) at 4° C. overnight. The plates were washed 5 times with 110 uL of PBS-Tween (0.05% Tween-20, PBST), blocked with 100 uL of 1% BSA in PBST for 2 hours and washed (5 times) with 100 uL of PBST. After 24 hours of compound treatment cells were lysed in a modified RIPA-buffer, on ice for 1 hour. 20 uL of lysate and 20 uL of 1% BSA were then added to the ELISA capture plates and incubated at 4° C. overnight. Plates were washed (5 times) with PBST and then incubated with 1:100 dilution of primary rabbit anti-SMN polyclonal antibody (Santa cruz, Catalog number SC-15320) at room temperature for 1 hour and subsequently washed (5 times) with 110 uL of PBST. This was followed by addition of 1:100 Goat anti-Rabbit IgG-HRP linked (Cell Signaling, Catalog number 7074) secondary antibody for 1 hour. Plates were then washed with PBST and incubated with 40 uL TMB substrate (Cell Signaling, Catalog number 7004 L) at room temperature for 1-10 minutes with shaking. The reaction was stopped by addition of 40 uL of stop solution (Cell signaling, Catalog number 7002 L) and absorption was measured at 450 nm. Data was reported as fold activation over DMSO control, and EC50.
ELISA assay condition 1: compound concentration range 20 nM-10 uM; ELISA assay condition 2: compound concentration 100 pM-10 uM. Data generated in Biological Example 1 using ELISA conditions 1 or 2.

Where [1] appears, read: Biological Example 1, SMN ELISA, SMNdelta7 mouse myoblasts, 24 hours compound treatment.
Where [2] appears, read: Biological Example 1, SMN ELISA, SMNdelta7 mouse myoblasts, 24 hours compound treatment, read-out: SMN Activity (EC50).
[3] abbreviates: comparison of unsubstituted, ortho-hydroxy and ortho-alkoxy pyridazines, as in Biological Example 1.
Setting [4] is: comparison of unsubstituted, ortho-hydroxy and ortho-alkoxy pyridazines, as in Biological Example 1, read-out: SMN ELISA EC50.

Where two headings read alike, the source gives them in different places.

`Cc1cc(-c2cnn(C)c2)c2cc(-c3ccc(N(C)C4CC(C)(C)NC(C)(C)C4)nn3)c(O)cc2n1` [Example 11-1, 2-methyl-6-(6-(methyl(2,2,6,6-tetramethylpiperidin-4-yl)amino)pyridazin-3-yl)-4-(1-methyl-1H-pyrazol-4-yl)quinolin-7-ol]: the “SMN Activity (fold activation over DMSO control)” value under setting [1] is on record as 2.6 fold. In addition, the EC50 under setting [2] came out at 60 nM.
As to `CN(c1ccc(-c2cc3nccnc3cc2O)nn1)C1CC(C)(C)NC(C)(C)C1` [Example 13-1, 7-(6-(methyl(2,2,6,6-tetramethylpiperidin-4-yl)amino)pyridazin-3-yl)quinoxalin-6-ol], the “SMN Activity (fold activation over DMSO control)” value under setting [1] is recorded as 2.7 fold. Also, the EC50 came out at 9 nM under setting [2] and 9 nM under setting [4]. Moreover, the Fold activation under setting [3] is 2.7 —.
On to `Cc1cc2cc(O)c(-c3ccc(N4CCNCC4)nn3)cc2cn1` [Example 37-1, 3-methyl-7-(6-(piperazin-1-yl)pyridazin-3-yl)isoquinolin-6-ol], for which the “SMN Activity (fold activation over DMSO control)” value under setting [1] is listed as 2.33 fold. Also, under setting [2], the EC50 is 124 nM.
As for `Cc1ccc2cc(O)c(-c3ccc(N(C)C4CC(C)(C)NC(C)(C)C4)nn3)cc2n1` [Example 6-2, 2-methyl-7-(6-(methyl(2,2,6,6-tetramethylpiperidin-4-yl)amino)pyridazin-3-yl)quinolin-6-ol], the “SMN Activity (fold activation over DMSO control)” value under setting [1] is given as 3.2 fold. For the same compound, under setting [2], the EC50 is 4 nM.
As to `CN(c1ccc(-c2cc3cc(Br)cnc3cc2O)nn1)C1CC(C)(C)NC(C)(C)C1` [Example 7-2, 3-bromo-6-(6-(methyl(2,2,6,6-tetramethylpiperidin-4-yl)amino)pyridazin-3-yl)quinolin-7-ol], the “SMN Activity (fold activation over DMSO control)” value under setting [1] was 2.6 fold. Moreover, the EC50 under setting [2] amounted to 8 nM.
Consider `CN(c1ccc(-c2cc3cnccc3cc2O)nn1)C1CC(C)(C)N(C)C(C)(C)C1` [Example 3-1, 7-(6-(methyl(1,2,2,6,6-pentamethylpiperidin-4-yl)amino)pyridazin-3-yl)isoquinolin-6-ol], for which the “SMN Activity (fold activation over DMSO control)” value under setting [1] is on record as 3.1 fold. For the same compound, the EC50 under setting [2] turned out to be 70 nM.
On to `Cc1cc(C2CCOCC2)c2cc(-c3ccc(N(C)C4CC(C)(C)NC(C)(C)C4)nn3)c(O)cc2n1` [Example 20-5, 2-methyl-6-(6-(methyl(2,2,6,6-tetramethylpiperidin-4-yl)amino)pyridazin-3-yl)-4-(tetrahydro-2H-pyran-4-yl)quinolin-7-ol], for which the “SMN Activity (fold activation over DMSO control)” value under setting [1] came out at 2.69 fold. Further, the EC50 under setting [2] was 286 nM.
In the same order, the values of `CN(c1ccc(-c2cc3ccnc(C#N)c3cc2O)nn1)C1CC(C)(C)NC(C)(C)C1` [Example 26-1, 7-hydroxy-6-(6-(methyl(2,2,6,6-tetramethylpiperidin-4-yl)amino)pyridazin-3-yl)isoquinoline-1-carbonitrile] are 2.58 fold and 16 nM.
In the same order, the values of `CN(c1ccc(-c2cc3ccc(C#N)nc3cc2O)nn1)C1CC(C)(C)NC(C)(C)C1` [Example 26-2, 7-hydroxy-6-(6-(methyl(2,2,6,6-tetramethylpiperidin-4-yl)amino)pyridazin-3-yl)quinoline-2-carbonitrile] are 3.14 fold and 7 nM.
Consider `COc1cc2cccnc2cc1-c1ccc(N(C)C2CC(C)(C)NC(C)(C)C2)nn1` [drawing 136 R = OMe, 6-(6-Methoxyquinolin-7-yl)-N-methyl-N-(2,2,6,6-tetramethylpiperidin-4-yl)pyridazin-3-amine], for which the Fold activation under setting [3] came to 1.7. Moreover, the EC50 under setting [4] amounted to 1170 nM.
As for `Cc1cc(C2CC2)c2cc(-c3ccc(N(C)C4CC(C)(C)NC(C)(C)C4)nn3)c(O)cc2n1` [Example 20-3, 4-cyclopropyl-2-methyl-6-(6-(methyl(2,2,6,6-tetramethylpiperidin-4-yl)amino)pyridazin-3-yl)quinolin-7-ol], under setting [1], the “SMN Activity (fold activation over DMSO control)” value turned out to be 2.72 fold. Moreover, the EC50 under setting [2] is 65 nM.
In the same order, the values of `Cc1cc(Cl)c2cc(-c3ccc(N(C)C4CC(C)(C)NC(C)(C)C4)nn3)c(O)cc2n1` [Preparation 11, 4-chloro-2-methyl-6-(6-(methyl(2,2,6,6-tetramethylpiperidin-4-yl)amino)pyridazin-3-yl)quinolin-7-ol] are 2.6 fold and 280 nM.
In the same order, the values of `CCOc1nccc2cc(O)c(-c3ccc(N(C)C4CC(C)(C)NC(C)(C)C4)nn3)cc12` [Example 35-3, 1-ethoxy-7-(6-(methyl(2,2,6,6-tetramethylpiperidin-4-yl)amino)pyridazin-3-yl)isoquinolin-6-ol] are 2.26 fold and 13 nM.
Turning to `COC(=O)c1ccc2cc(O)c(-c3ccc(N(C)C4CC(C)(C)NC(C)(C)C4)nn3)cc2n1` [Example 26-7, methyl 6-hydroxy-7-(6-(methyl(2,2,6,6-tetramethylpiperidin-4-yl)amino)pyridazin-3-yl)quinoline-2-carboxylate], the “SMN Activity (fold activation over DMSO control)” value under setting [1] is listed as 2.64 fold. In addition, the 50% effective concentration (EC50) under setting [2] is 17 nM.
For `CCc1cnc2cc(O)c(-c3ccc(N(C)C4CC(C)(C)NC(C)(C)C4)nn3)cc2c1` [Example 8-1, 3-ethyl-6-(6-(methyl(2,2,6,6-tetramethylpiperidin-4-yl)amino)pyridazin-3-yl)quinolin-7-ol], the “SMN Activity (fold activation over DMSO control)” value under setting [1] worked out at 2.9 fold. In addition, under setting [2], the EC50 amounted to 86 nM.
For `Cc1cnc2cc(O)c(-c3ccc(N(C)C4CC(C)(C)NC(C)(C)C4)nn3)cc2n1` [Example 18-2, 2-methyl-7-(6-(methyl(2,2,6,6-tetramethylpiperidin-4-yl)amino)pyridazin-3-yl)quinoxalin-6-ol] the same measures were 3.31 fold and 9 nM.
For `Cc1cnc2cc(-c3ccc(N(C)C4CC(C)(C)NC(C)(C)C4)nn3)c(O)cc2n1` [Example 18-3, 3-methyl-7-(6-(methyl(2,2,6,6-tetramethylpiperidin-4-yl)amino)pyridazin-3-yl)quinoxalin-6-ol] the same measures were 2.72 fold and 16 nM.
In the same order, the values of `Cc1cnc2cc(-c3ccc(N(C)C4CC(C)(C)NC(C)(C)C4)nn3)c(O)c(Br)c2c1` [Example 16-1, 5-bromo-3-methyl-7-(6-(methyl(2,2,6,6-tetramethylpiperidin-4-yl)amino)pyridazin-3-yl)quinolin-6-ol] are 2.44 fold and 258 nM.
As to `CN(c1ccc(-c2cc3ncc(Br)cc3cc2O)nn1)C1CC(C)(C)NC(C)(C)C1` [Example 15-2, 3-bromo-7-(6-(methyl(2,2,6,6-tetramethylpiperidin-4-yl)amino)pyridazin-3-yl)quinolin-6-ol], under setting [1], the “SMN Activity (fold activation over DMSO control)” value amounted to 2.52 fold. Besides, the concentration for a half-maximal effect (EC50) under setting [2] amounted to 19 nM.
With `Cc1cc2cc(O)c(-c3ccc(N(C)C4CC(C)(C)NC(C)(C)C4)nn3)cc2cn1` [Example 36-2, 3-methyl-7-(6-(methyl(2,2,6,6-tetramethylpiperidin-4-yl)amino)-pyridazin-3-yl)isoquinolin-6-ol], under setting [1], the “SMN Activity (fold activation over DMSO control)” value is reported as 2.64 fold. Also, the EC50 under setting [2] was 9 nM.
In the same order, the values of `CN(c1ccc(-c2cc3cncnc3cc2O)nn1)C1CC(C)(C)NC(C)(C)C1` [Example 23-1, 6-(6-(methyl(2,2,6,6-tetramethylpiperidin-4-yl)amino)pyridazin-3-yl)quinazolin-7-ol] are 3.6 fold and 41 nM.
For `Cc1nccc2cc(O)c(-c3ccc(N(C)C4CC(C)(C)NC(C)(C)C4)nn3)cc12` [Example 29-2, 1-methyl-7-(6-(methyl(2,2,6,6-tetramethylpiperidin-4-yl)amino)pyridazin-3-yl)isoquinolin-6-ol] the same measures were 2.53 fold and 9 nM.
For `CN(c1ccc(-c2cc3ncc(Cl)cc3cc2O)nn1)C1CC(C)(C)NC(C)(C)C1` [Example 15-1, 3-chloro-7-(6-(methyl(2,2,6,6-tetramethylpiperidin-4-yl)amino)pyridazin-3-yl)quinolin-6-ol] the same measures were 2.68 fold and 16 nM.
Take `Cc1cc(C2=CCOCC2)c2cc(-c3ccc(N(C)C4CC(C)(C)NC(C)(C)C4)nn3)c(O)cc2n1` [Example 20-4, 4-(3,6-dihydro-2H-pyran-4-yl)-2-methyl-6-(6-(methyl(2,2,6,6-tetramethylpiperidin-4-yl)amino)pyridazin-3-yl)quinolin-7-ol]: under setting [1], the “SMN Activity (fold activation over DMSO control)” value came out at 2.72 fold. The concentration giving a half-maximal response (EC50) under setting [2] is 166 nM.
